Columns and labels:
ruminal digesta [1] = assay: Proteolytic activity of ruminal digesta, Method 1 (14C-casein); assay type: cell-based, sheep; conditions: 2.5 mg/ml, 1 h; value in absence of plant material = 100
Protocol: Method 1. Strained ruminal fluid from the same sheep was used to determine proteolytic activity using the ^14C-casein method of Wallace (1983). Samples were added to a final concentration of 2.5 mg/ml, and an incubation time of 1 h was used.

ruminal fermentation [2] = assay: Hohenheim methods for general effects on fermentation (RPT, grass silage); assay type: cell-based, non-lactating Holstein cows; conditions: Hohenheim diet; amount in feed 10 %; control = 100
ruminal digesta [3] = assay: Methane formation by ruminal digesta (León incubations, GC); assay type: cell-based, sheep
Protocol: A representative sample of the gas produced was taken for subsequent analysis. Sampling was conducted using special gas-tight glass syringes fitted with a valve allowing for sample locking and storage. The sample was collected directly from the headspace, after inserting the needle through the septum of the stopper, taking a sample in the syringe and closing the valve. This sample was collected after measuring total gas production, assuming that gas composition was the same in the gas released and in that remaining in the headspace. Methane concentration in the gas produced was determined by gas chromatography. The gas sample (300 to 500 μl) was injected directly from the gas-tight syringe to the corresponding port. The GC parameter settings used for the analysis were: • Instrument: Shimadzu GC-14B provided with a flame ionisation detector (FID) • Column: 2.3 meters length×2.1 mm internal diameter stainless steel column packed with 60/80 mesh Carboxen 1000 stationary phase • Carrier gas: Helium, flow rate (100 kPa), Constant flow mode • Temperatures: • Detector: FID. Temperature 200° C., Synthetic Air flow rate (50 kPa), H2 flow rate (50 kPa) • Injector: Temperature 200° C. • Column-oven: 170° C. […] The standard curve was established by plotting a linear regression of the standard quantities injected of methane versus the area of the peaks to obtain the response factor.

ruminal fermentation [4] = assay: Reading methods for general effects on fermentation (RPT, maize silage); assay type: cell-based, lactating dairy cows; conditions: Reading diet; for Cumulative gas, 24 h / Fermentation efficiency: control = 100; for Dry matter digestion: value in absence of plant material = 100
Protocol: A series of thirteen consecutive fermentations, one per week, was undertaken using the Reading Pressure Technique [RPT], to identify potential effects from including these test materials on the fermentation and degradation characteristics of a basal forage [maize silage]. All materials were examined in triplicate and at two inclusion levels [100 and 400 mg g^−1 DM substrate], with the exception of β-myrcene [10 and 40 mg g^−1 inclusion levels]. The maize silage was pre-dried and milled to pass a 2 mm screen. A total of 1.0 g blended substrate [silage plus substrate] was placed in each fermentation flask. Buffered incubation medium [90 ml] was then added, the flasks sealed and stored overnight at room temperature. Prior to inoculation with prepared rumen fluid, flask contents were raised to 39° C. Rumen fluid was obtained manually [hand-squeezed contents] prior to feeding [07.00 h] from two lactating dairy cows offered a maize/grass silage : concentrate [60:40] ration ad libitum. The fluid was filtered through two layers of muslin and held under CO2 at 39° C. until use. Ten ml prepared fluid was added to each flask and these incubated at 39° C. for the duration of the study. Six negative controls [buffered medium plus rumen fluid only] were included in each run to correct gas values and degradation residues for direct rumen fluid effects. In addition un-supplemented maize silage [1.0 g flask^−1] was included in all runs [six flasks per run]. Results within studies were expressed relative to the positive control values. Headspace gas pressure readings were obtained 2, 4, 6, 8, 10, 12, 14, 16, 18, 21 and 24 hours post-inoculation. Following the last measurement approximately 3.0 ml fermentation medium was sampled from each flask and bulked by test material/inclusion level and stored frozen [−20° C.] until later analysis for VFA composition using a Varian 3600 GC. Fermentation residues were recovered by filtering flask contents through 60 ml Gooch crucibles [porosity 1, 100 to 160 μm] under light vacuum. The residues were then dried [100° C. for 24 hours], weighed, ashed [500° C. overnight] and reweighed. The quantity of dry matter [DM] and organic matter [OM] determined were used to assess iDMD and iOMD [in vitro DM and OM degradation, respectively]. The extent [ml gas g^−1 OM incubated] and rate of fermentation gas release [ml h^−1] were generated using a previously derived quadratic function to convert pressure to volume. Feed fermentation efficiency [FE] was estimated as iDMD [g kg^−1]/cumulative gas [ml] release at 24 h post-inoculation. Statistical differences between treatment means and the positive control [maize silage alone] were assessed using Students T-test and significance declared at […].

[5] = tested on: lactic acid producing bacteria; assay: Acidosis assay (pH and lactic acid, milled wheat grain, 48-h fermentation); assay type: cell-based, cows; conditions: 100 mg/g DM in milled wheat grain (β-myrcene 10 mg/g), control = 100
Protocol: A model was used in which the decrease in incubation medium pH and the concentration of lactic acid produced, relative to the controls over a 48-h fermentation period provided an indication of the ability of the test substrates to offset potential acidotic effects. In this study milled wheat grain [2 mm] was used as the basal substrate and the test materials included at 100 mg g^−1 DM [or 10 mg g^−1 DM β-myrcene]. As before 1.0 g total substrate was added to each flask. To enhance lactic acid production, the buffer solution prepared was diluted by 50 percent. This was to ensure that the buffering capacity of the incubation medium was exceeded and the resulting decrease in pH encouraged growth of Lactobacilli and other lactic acid producing bacteria. Rumen fluid was obtained and prepared as previously described except that the two cows used were offered an early lactation ration with a high level of coarse milled wheat. Fluid pH measurements were made one hour after inoculation [start pH] then after a further 23 and 47 hours, by inserting a pH electrode directly into each flask. Immediately following the last measurement approximately 3.0 ml fluid were taken from each flask, bulked by sample and stored frozen at −20° C. until analyzed enzymatically for L [+] lactic acid. Results are presented as absolute differences relative to the controls. […]

ruminal fermentation [6] = assay: León methods for general effects on fermentation (batch cultures); assay type: cell-based, sheep; conditions: Leon diet; amount in feed 10 %; 24 h; control = 100
Protocol: Rumen cannulated sheep fed on a diet consisting of 75% alfalfa hay and 25% barley (free access to vitamin-mineral supplements and water) were used as donors for rumen fluid. Rumen fluid was collected just before the morning meal. The substrate used for the batch cultures consisted of 50% alfalfa hay, 40% grass hay and 10% barley grain, milled in a hammer mill with a 1-mm screen. The amount of substrate used was 500 mg, and inclusion rate of the test plant was 10% (ca. 50 mg). Both were weighed into serum bottles, where 50 ml of buffered rumen fluid (containing 10 ml of filtered rumen fluid and 40 ml of the medium described by Goering & Van Soest, 1970) were dispensed an-aerobically. The bottles were sealed and incubated at 39° C. After 24 h of incubation, the ensuing measurements were recorded: • Total gas production (ml), using a pressure transducer and collecting the gas in a calibrated syringe. • pH in the incubation medium. • Volatile fatty acids concentration in the incubation medium, by GC (VFA was also measured at inoculation time to calculate VFA production after 24 h). • DM incubation residue, by filtering the bottle contents in sintered crucibles and weighing the residue after drying. Thereafter, the neutral detergent fibre (NDF) content of the residue was determined to calculate the amount of un-degraded NDF. From this, DM and NDF disappearance were estimated. Three replicates per plant were incubated, and blanks (no substrate no plant) and controls (500 mg substrate without any plant, and 550 mg substrate without any plant) were used.

ruminal ciliate protozoa = assay: Bacteriolytic activity of ruminal ciliate protozoa (breakdown of 14C-leucine-labelled Selenomonas ruminantium in strained ruminal fluid); assay type: cell-based, sheep
Protocol: The rate of breakdown of [^14C]leucine-labelled Selenomonas ruminantium was determined by incubating strained ruminal fluid in vitro with labelled S. ruminantium in the presence of 5 mM unlabelled L-leucine as described previously (Wallace & McPherson, 1987). Under these conditions, the great majority of bacterial protein breakdown is caused by the ingestion and digestion of bacteria by ciliate protozoa. The samples were, unless stated otherwise, added at a concentration of 5 mg/ml. The sheep received a mixed grass hay:concentrate diet (Frumholtz et al., 1989).

[7] = amount in feed 10 % (β-myrcene 10 mg/g)
[8] = amount in feed 40 % (β-myrcene 40 mg/g)

In the case of `C=CC(=C)CCC=C(C)C` [Sample 13, β-Myrcene], the “Proteolysis, Method 1” value (ruminal digesta [1]) is reported as 110, the C3/C2 (ruminal fermentation [2]) is reported as 104 and the Digestibility (ruminal fermentation [2]) is reported as 100. For the same molecule, the Fermentation efficiency (ruminal fermentation [2]) was 99, the Gas production (ruminal fermentation [2]) was 101 and the SCFA (ruminal fermentation [2]) was 103. For the same molecule, the “methane production / methanogenic activity (in words)” value (ruminal digesta [3]) was “decrease”, the “Methane formation, Leon” value (ruminal digesta [3]; 10% of feed, value in absence of plant material = 100) was 90 and the “Cumulative gas, 24 h” value (ruminal fermentation [4]; [7]) was 100. The Fermentation efficiency (ruminal fermentation [4]; [7]) was 103, the Dry matter digestion (ruminal fermentation [4]; [7]) was 103 and the “Cumulative gas, 24 h” value (ruminal fermentation [4]; [8]) was 82. For the same molecule, the Fermentation efficiency (ruminal fermentation [4]; [8]) was 109, the Dry matter digestion (ruminal fermentation [4]; [8]) was 89 and the “Acidity, 24 h” value ([5]; 24 h) was 105. The “Acidity, 48 h” value ([5]; 48 h) was 115, the App. digestibility (ruminal fermentation [6]) was 93 and the C3/C2 (ruminal fermentation [6]) was 105. For the same molecule, the Digestibility (ruminal fermentation [6]) was 102, the Fermentation efficiency (ruminal fermentation [6]) was 109 and the Gas production (ruminal fermentation [6]) was 97. For the same molecule, the Microbial biomass (ruminal fermentation [6]) was 115, the TVFA (ruminal fermentation [6]) was 96 and the “bacteriolytic activity of ciliate protozoa / protozoal activity (in words)” value (ruminal ciliate protozoa) was “moderate inhibiting effect”. It also gave a Protozoal activity (ruminal ciliate protozoa; 5 mg/ml, value in absence of plant material = 100) of 68.

Source: patent US20080008774A1, “Use Of Plants, Plant Extracts And Nature-Identical Components From Plants To Affect The Rumen Fermentation And To Improve The Energy And Protein Retention Of Ruminants” (DSM IP ASSETS B.V., priority 2004, published 2008)
